Measured values reported in patent US8546482B2, “Low odor compositions and low odor coating compositions” (Rohm and Haas Company, priority 2009, dated 2013).

Tests used:
Type in all cases: biochemical
CALBL = biological target: T1, CALBL (Moesziomyces antarcticus, UniProt P41365); test: Small molecule inhibitors, EA content of latex containing CALBL; parameters: EA content (column not headed): unit not given here; conditions: for Inhibition of the carboxylesterase enzyme (in words): CALBL 60 ppm, inhibitor 1.0%; for Effect of low inhibitor levels on enzyme activity (in words) / EA content (column not headed): CALBL 6 ppm; for Effect of low inhibitor levels on enzyme activity (in words): inhibitor as low as 0.01% or even 0.001% (solid on wet latex); for EA content (column not headed): latex
T1 construct: purchased Novozymes, Bagsvaerd, Denmark Novozym CALB L
T1 sequence (P41365 26-342): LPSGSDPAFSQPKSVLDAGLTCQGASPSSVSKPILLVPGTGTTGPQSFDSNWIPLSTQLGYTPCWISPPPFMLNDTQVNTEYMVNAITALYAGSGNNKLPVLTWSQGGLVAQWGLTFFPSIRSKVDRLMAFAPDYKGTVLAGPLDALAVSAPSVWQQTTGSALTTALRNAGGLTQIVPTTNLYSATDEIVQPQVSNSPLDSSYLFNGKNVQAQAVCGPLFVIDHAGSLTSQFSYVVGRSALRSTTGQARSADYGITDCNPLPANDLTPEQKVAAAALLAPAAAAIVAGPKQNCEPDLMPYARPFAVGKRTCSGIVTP
Method: (§1) In another embodiment, deactivation of the carboxylesterase enzyme may be achieved by the addition of a small molecule inhibitor, as shown for CALBL and N51032 in Tables 13 and 14, below. […] The small molecule inhibitor and CALBL were added simultaneously at the time t=0. In the following tables, the potential small molecule inhibitors are as follows: • PBA—phenylboronic acid • S-1-DS—Sodium 1-decane-sulfonate • NPB—Neopentylboronic acid • 2MPB—(2-methylpropyl)boronic acid • CBA—cyclohexylboronic acid
(§2) Again, optimization of the level of use for PBA and 2MPB in the latex is explored below, in Tables 15 and 16, respectively, by the same procedure.

N51032 [1] = test: Small molecule inhibitors, EA content of latex containing N51032; conditions: N51032 50 ppm; inhibitor 1%
Method: as §1
The small molecule inhibitors are added at 1% by weight of solids on weight of wet latex (at the same time as the esterase).
as §2

N51032 [2] = test: as above; conditions: N51032 5 ppm; for Effect of low inhibitor levels on enzyme activity (in words): inhibitor as low as 0.01% or even 0.001% (solid on wet latex); for EA content (column not headed): latex

Row | Compound | Inhibition of the carboxylesterase enzyme (in words) (CALBL) | Effect of low inhibitor levels on enzyme activity (in words) (CALBL) | EA content (column not headed) (CALBL; inhibitor 0.001%, 0 hr) | EA content (column not headed) (CALBL; inhibitor 0.001%, 120 hr) | EA content (column not headed) (CALBL; inhibitor 0.001%, 168 hr) | EA content (column not headed) (CALBL; inhibitor 0.001%, 384 hr) | EA content (column not headed) (CALBL; inhibitor 0.001%, 480 hr) | EA content (column not headed) (CALBL; inhibitor 0.01%, 0 hr) | EA content (column not headed) (CALBL; inhibitor 0.01%, 120 hr) | EA content (column not headed) (CALBL; inhibitor 0.01%, 168 hr) | EA content (column not headed) (CALBL; inhibitor 0.01%, 384 hr) | EA content (column not headed) (CALBL; inhibitor 0.01%, 480 hr) | EA content (column not headed) (CALBL; inhibitor 0.1%, 0 hr) | EA content (column not headed) (CALBL; inhibitor 0.1%, 120 hr) | EA content (column not headed) (CALBL; inhibitor 0.1%, 168 hr) | EA content (column not headed) (CALBL; inhibitor 0.1%, 384 hr) | EA content (column not headed) (CALBL; inhibitor 0.1%, 480 hr) | Effect of low inhibitor levels on enzyme activity (in words) (N51032 [2]) | EA content (column not headed) (N51032 [2]; inhibitor 0.001%, 0 hr) | EA content (column not headed) (N51032 [2]; inhibitor 0.001%, 120 hr) | also measured
1 | OB(O)C1CCCCC1 [CBA, cyclohexylboronic acid] | some ability to inhibit the CALBL enzyme | – | – | – | – | – | – | – | – | – | – | – | – | – | – | – | – | – | – | – | –
2 | CC(C)(C)CB(O)O [NPB, Neopentylboronic acid] | completely ineffective as an inhibitor | – | – | – | – | – | – | – | – | – | – | – | – | – | – | – | – | – | – | – | –
3 | OB(O)c1ccccc1 [PBA, phenylboronic acid] | effective in inhibiting the carboxylesterase enzyme | sufficient to shut off the enzyme activity | 48 | 30 | 25 | 11 | 9 | 44 | 32 | 26 | 15 | 15 | 39 | 35 | 35 | 29 | 29 | sufficient to shut off the enzyme activity | 46 ppm | 36 ppm | Inhibition of the carboxylesterase enzyme (in words) (N51032 [1]): effective in inhibiting the carboxylesterase enzyme; EA content (column not headed) (N51032 [2]; inhibitor 0.001%, 168 hr): 34 ppm; EA content (column not headed) (N51032 [2]; inhibitor 0.001%, 384 hr): 22 ppm; EA content (column not headed) (N51032 [2]; inhibitor 0.001%, 480 hr): 19 ppm; EA content (column not headed) (N51032 [2]; inhibitor 0.01%, 0 hr): 45 ppm; EA content (column not headed) (N51032 [2]; inhibitor 0.01%, 120 hr): 41 ppm; EA content (column not headed) (N51032 [2]; inhibitor 0.01%, 168 hr): 39 ppm; EA content (column not headed) (N51032 [2]; inhibitor 0.01%, 384 hr): 34 ppm; EA content (column not headed) (N51032 [2]; inhibitor 0.01%, 480 hr): 34 ppm; EA content (column not headed) (N51032 [2]; inhibitor 0.1%, 0 hr): 46 ppm; EA content (column not headed) (N51032 [2]; inhibitor 0.1%, 120 hr): 34 ppm; EA content (column not headed) (N51032 [2]; inhibitor 0.1%, 168 hr): 41 ppm; EA content (column not headed) (N51032 [2]; inhibitor 0.1%, 384 hr): 38 ppm; EA content (column not headed) (N51032 [2]; inhibitor 0.1%, 480 hr): 39 ppm
4 | CC(C)CB(O)O [Paint 2MPB, (2-methylpropyl)boronic acid] | effective in inhibiting the carboxylesterase enzyme | sufficient to shut off the enzyme activity | 44 | 32 | 23 | 10 | 8 | 43 | 28 | 24 | 13 | 11 | 43 | 34 | 25 | 15 | 13 | sufficient to shut off the enzyme activity | 42 ppm | 24 ppm | EA content (column not headed) (N51032 [2]; inhibitor 0.001%, 168 hr): 22 ppm; EA content (column not headed) (N51032 [2]; inhibitor 0.001%, 384 hr): 8 ppm; EA content (column not headed) (N51032 [2]; inhibitor 0.001%, 480 hr): 6 ppm; EA content (column not headed) (N51032 [2]; inhibitor 0.01%, 0 hr): 37 ppm; EA content (column not headed) (N51032 [2]; inhibitor 0.01%, 120 hr): 25 ppm; EA content (column not headed) (N51032 [2]; inhibitor 0.01%, 168 hr): 19 ppm; EA content (column not headed) (N51032 [2]; inhibitor 0.01%, 384 hr): 6 ppm; EA content (column not headed) (N51032 [2]; inhibitor 0.01%, 480 hr): 5 ppm; EA content (column not headed) (N51032 [2]; inhibitor 0.1%, 0 hr): 43 ppm; EA content (column not headed) (N51032 [2]; inhibitor 0.1%, 120 hr): 34 ppm; EA content (column not headed) (N51032 [2]; inhibitor 0.1%, 168 hr): 27 ppm; EA content (column not headed) (N51032 [2]; inhibitor 0.1%, 384 hr): 22 ppm; EA content (column not headed) (N51032 [2]; inhibitor 0.1%, 480 hr): 20 ppm
5 | CCCCCCCCCCS(=O)(=O)[O-].[Na+] [Paint S-1-DS, Sodium 1-decane-sulfonate] | some ability to inhibit the CALBL enzyme | – | – | – | – | – | – | – | – | – | – | – | – | – | – | – | – | – | – | – | –
